Results as given in patent publication US20110159515A1, “COMPOSITIONS AND METHODS FOR THE RAPID GROWTH AND DETECTION OF MICROORGANISMS” (SOLUS SCIENTIFIC SOLUTIONS LIMITED, priority 2008, published 2011).

Tests used:
[1] = tested on: S. aberdeen; assay: Direct binding Salmonella assay (chemiluminescence immunosorbent)
[2] = tested on: L. innocua; assay: as above; conditions: 10^6 L. innocua
Experimental: The sample was heated to 100° C. for 5 minutes and allowed to cool. One hundred microlitres of each test sample was added directly to a well of a solid white 96 well high binding microtitre plate (Greiner Bio One) and incubated at 37° C. for 30 minutes. During incubation, the lipid A portion of the LPS binds to the surface of the plate via non-covalent hydrophobic interactions (FIG. 1a (1), FIG. 1b(1)).
The final concentration of antibody per well was 50 ng. The plate-bound sample (Salmonella LPS/core oligosaccharide) and antibody were incubated in the coated wells for 30 minutes as 37° C. Following incubation, plates were washed three times in wash buffer and pat dried prior to detection (FIG. 1a(2), FIG. 1b(2)).
When the anti-Salmonella is directly labelled with acridinium ester, plates were placed into a luminometer. 30 μl of trigger solution A and 60 μl of trigger solution B was added to each well of the microtitre plate to initiate light output from conjugated acridinium ester (FIG. 1a(3)). The luminometer settings were as follows:
When the anti-Salmonella antibody is not labelled, a second binding member, a goat anti-mouse IgG2b conjugate is used. Post column IgG2b was diluted 1:100 in a diluent comprising 3% (w/v) non-fat milk powder and 0.05% (v/v) Tween 20 and 100 ul of this solution was added to each well of the plate (FIG. 1b(3)). Following incubation at 37° C. for 60 minutes the plate was washed four times in wash buffer, dried and read as above (FIG. 1b(4)).
Monoclonal antibody (1:100 dilution) was incubated with either Salmonella or Listeria to determine optimum incubation times:
Monoclonal antibody (1:200 dilution) was incubated with either Salmonella or Listeria to determine optimum incubation times: […]

Question: How did the “signal, direct binding Salmonella assay” value ([1]; 0.3% SDS, conjugate 1:100, 10^5 S. aberdeen, white plate, Lucy I) turn out when `CCCCCCCCCCCCOS(=O)(=O)[O-].[Na+]` [SDS, sodium dodecyl sulphate] was run?
Answer: The value was 209,913 ± 40,150.

Question: What about the “signal, direct binding Salmonella assay” value ([1]; 0.3% SDS, conjugate 1:100, 10^6 S. aberdeen, white plate, Lucy I) of the same molecule?
Answer: Its value is 352,714 ± 88,260.

Question: What about the “signal, direct binding Salmonella assay” value ([1]; 0.3% SDS, conjugate 1:100, Peptone, white plate, Lucy I) of the same molecule?
Answer: The value was 3,026 ± 473.

Question: What about the “signal, direct binding Salmonella assay” value ([1]; 0.4% SDS, conjugate 1:100, 2.5 × 10^4 S. aberdeen, white plate, Lucy I) of the same molecule?
Answer: Its value is 59,399 ± 13,550.

Question: And the “signal, direct binding Salmonella assay” value ([1]; 0.4% SDS, conjugate 1:100, 5 × 10^3 S. aberdeen, white plate, Lucy I)?
Answer: Its value is 25,175 ± 5,025.

Question: And the “signal, direct binding Salmonella assay” value ([1]; 0.4% SDS, conjugate 1:100, 5 × 10^4 S. aberdeen, white plate, Lucy I)?
Answer: Its value is 120,481 ± 16,389.

Question: And the “signal, direct binding Salmonella assay” value ([1]; 0.4% SDS, conjugate 1:100, 10^4 S. aberdeen, white plate, Lucy I)?
Answer: The value was 29,127 ± 2,516.

Question: What about the “signal, direct binding Salmonella assay” value ([1]; 0.4% SDS, conjugate 1:100, 10^5 S. aberdeen, white plate, Lucy I) of the same molecule?
Answer: The value was 199,287 ± 67,462.

Question: What about the “signal, direct binding Salmonella assay” value ([1]; 0.4% SDS, conjugate 1:100, 10^6 S. aberdeen, white plate, Lucy I) of the same molecule?
Answer: The value was 398,979 ± 44,871.

Question: What about the “signal, direct binding Salmonella assay” value ([1]; 0.4% SDS, conjugate 1:100, Peptone, white plate, Lucy I) of the same molecule?
Answer: The value was 3,499 ± 569.

Question: What about the “signal, direct binding Salmonella assay” value ([1]; 0.5% (w/v) SDS (first block), conjugate 1:100, 2.5 × 10^4 S. aberdeen, black and white plates) of the same molecule?
Answer: The value was 1094 ± 156.

Question: And the “signal, direct binding Salmonella assay” value ([1]; 0.5% (w/v) SDS (first block), conjugate 1:100, 5 × 10^3 S. aberdeen, black and white plates)?
Answer: The value was 623 ± 9.

Question: And the “signal, direct binding Salmonella assay” value ([1]; 0.5% (w/v) SDS (first block), conjugate 1:100, 5 × 10^4 S. aberdeen, black and white plates)?
Answer: Its value is 1,826 ± 166.

Question: And the “signal, direct binding Salmonella assay” value ([1]; 0.5% (w/v) SDS (first block), conjugate 1:100, 10^4 S. aberdeen, black and white plates)?
Answer: Its value is 796 ± 23.

Question: What about the “signal, direct binding Salmonella assay” value ([1]; 0.5% (w/v) SDS (first block), conjugate 1:100, 10^5 S. aberdeen, black and white plates) of the same molecule?
Answer: The value was 2,259 ± 103.

Question: What about the “signal, direct binding Salmonella assay” value ([1]; 0.5% (w/v) SDS (first block), conjugate 1:100, 10^6 S. aberdeen, black and white plates) of the same molecule?
Answer: Its value is 16,959 ± 360^.

Question: And the “signal, direct binding Salmonella assay” value ([1]; 0.5% (w/v) SDS (first block), conjugate 1:100, Peptone, black and white plates)?
Answer: The value was 705 ± 97.

Question: And the “signal, direct binding Salmonella assay” value ([1]; 0.5% (w/v) SDS, conjugate 1:50, Peptone, black and white plate, tube luminometer)?
Answer: Its value is 1198 ± 112.

Question: What about the “signal, direct binding Salmonella assay” value ([1]; 0.5% (w/v) SDS, conjugate 1:50, S. aberdeen 2.5 × 10^4, black and white plate, tube luminometer) of the same molecule?
Answer: Its value is 6697 ± 1676.

Question: What about the “signal, direct binding Salmonella assay” value ([1]; 0.5% (w/v) SDS, conjugate 1:50, S. aberdeen 5 × 10^3, black and white plate, tube luminometer) of the same molecule?
Answer: The value was 1622 ± 21.

Question: What about the “signal, direct binding Salmonella assay” value ([1]; 0.5% (w/v) SDS, conjugate 1:50, S. aberdeen 5 × 10^4, black and white plate, tube luminometer) of the same molecule?
Answer: Its value is 12,231 ± 723^.

Question: And the “signal, direct binding Salmonella assay” value ([1]; 0.5% (w/v) SDS, conjugate 1:50, S. aberdeen 10^4, black and white plate, tube luminometer)?
Answer: The value was 3199 ± 735.

Question: What about the “signal, direct binding Salmonella assay” value ([1]; 0.5% (w/v) SDS, conjugate 1:50, S. aberdeen 10^5, black and white plate, tube luminometer) of the same molecule?
Answer: The value was 22,245 ± 529^.

Question: What about the “signal, direct binding Salmonella assay” value ([1]; 0.5% (w/v) SDS, conjugate 1:50, S. aberdeen 10^6, black and white plate, tube luminometer) of the same molecule?
Answer: Its value is 59,070 ± 1216.

Question: And the “signal, direct binding Salmonella assay” value ([1]; 0.5% SDS (second block), conjugate 1:100, 2.5 × 10^4 S. aberdeen, black and white plates)?
Answer: The value was 1,265 ± 46^.

Question: And the “signal, direct binding Salmonella assay” value ([1]; 0.5% SDS (second block), conjugate 1:100, 5 × 10^3 S. aberdeen, black and white plates)?
Answer: The value was 748 ± 4.

Question: And the “signal, direct binding Salmonella assay” value ([1]; 0.5% SDS (second block), conjugate 1:100, 10^4 S. aberdeen, black and white plates)?
Answer: The value was 908 ± 10.

Question: And the “signal, direct binding Salmonella assay” value ([1]; 0.5% SDS (second block), conjugate 1:100, 10^5 S. aberdeen, black and white plates)?
Answer: Its value is 3,947 ± 494.

Question: What about the “signal, direct binding Salmonella assay” value ([1]; 0.5% SDS (second block), conjugate 1:100, 10^6 S. aberdeen, black and white plates) of the same molecule?
Answer: Its value is 26,621 ± 843^.

Question: And the “signal, direct binding Salmonella assay” value ([1]; 0.5% SDS (second block), conjugate 1:100, Peptone, black and white plates)?
Answer: Its value is 631 ± 38.

Question: What about the “signal, release and detection of core oligosaccharide” value (“signal, release and detection” for short) ([1]; 0.5% SDS, 10^1 bacteria (species not given)) of the same molecule?
Answer: The value was 9918 relative light units.

Question: What about the “signal, release and detection” value ([1]; 0.5% SDS, 10^2 bacteria (species not given)) of the same molecule?
Answer: Its value is 9987 relative light units.

Question: And the “signal, release and detection” value ([1]; 0.5% SDS, 10^3 bacteria (species not given))?
Answer: Its value is 30399 relative light units.

Question: What about the “signal, release and detection” value ([1]; 0.5% SDS, 10^5 bacteria (species not given)) of the same molecule?
Answer: Its value is 959119 relative light units.

Question: What about the “signal, release and detection” value ([1]; 0.5% SDS, 10^6 bacteria (species not given)) of the same molecule?
Answer: The value was 884352 relative light units.

Question: What about the “signal, direct binding Salmonella assay” value ([1]; 0.5% SDS, conjugate 1:100, 2.5 × 10^4 S. aberdeen, white plate, Lucy I) of the same molecule?
Answer: The value was 95,766 ± 6,186.

Question: What about the “signal, direct binding Salmonella assay” value ([1]; 0.5% SDS, conjugate 1:100, 5 × 10^3 S. aberdeen, white plate, Lucy I) of the same molecule?
Answer: Its value is 24,984 ± 1,727.

Question: And the “signal, direct binding Salmonella assay” value ([1]; 0.5% SDS, conjugate 1:100, 5 × 10^4 S. aberdeen, white plate, Lucy I)?
Answer: Its value is 95,766 ± 6,186.

Question: And the “signal, direct binding Salmonella assay” value ([1]; 0.5% SDS, conjugate 1:100, 10^4 S. aberdeen, white plate, Lucy I)?
Answer: Its value is 46,273 ± 2,310.

Question: What about the “signal, direct binding Salmonella assay” value ([1]; 0.5% SDS, conjugate 1:100, 10^5 S. aberdeen, white plate, Lucy I) of the same molecule?
Answer: The value was 166,049 ± 288.

Question: What about the “signal, direct binding Salmonella assay” value ([1]; 0.5% SDS, conjugate 1:100, 10^6 S. aberdeen, white plate, Lucy I) of the same molecule?
Answer: Its value is 374,007 ± 24,114.

Question: And the “signal, direct binding Salmonella assay” value ([1]; 0.5% SDS, conjugate 1:100, Peptone, black and white plate, tube luminometer)?
Answer: The value was 974 ± 107.

Question: What about the “signal, direct binding Salmonella assay” value ([1]; 0.5% SDS, conjugate 1:100, Peptone, white plate, Lucy I) of the same molecule?
Answer: Its value is 3,103 ± 267.

Question: And the “signal, direct binding Salmonella assay” value ([1]; 0.5% SDS, conjugate 1:100, S. aberdeen 2.5 × 10^4, black and white plate, tube luminometer)?
Answer: The value was 3933 ± 379.

Question: And the “signal, direct binding Salmonella assay” value ([1]; 0.5% SDS, conjugate 1:100, S. aberdeen 5 × 10^3, black and white plate, tube luminometer)?
Answer: The value was 1209 ± 66.

Question: And the “signal, direct binding Salmonella assay” value ([1]; 0.5% SDS, conjugate 1:100, S. aberdeen 5 × 10^4, black and white plate, tube luminometer)?
Answer: Its value is 8721 ± 63.

Question: And the “signal, direct binding Salmonella assay” value ([1]; 0.5% SDS, conjugate 1:100, S. aberdeen 10^4, black and white plate, tube luminometer)?
Answer: The value was 1606 ± 243.

Question: What about the “signal, direct binding Salmonella assay” value ([1]; 0.5% SDS, conjugate 1:100, S. aberdeen 10^5, black and white plate, tube luminometer) of the same molecule?
Answer: Its value is 15,009 ± 871^.

Question: What about the “signal, direct binding Salmonella assay” value ([1]; 0.5% SDS, conjugate 1:100, S. aberdeen 10^6, black and white plate, tube luminometer) of the same molecule?
Answer: Its value is 40,190 ± 783^.

Question: What about the “signal, direct binding Salmonella assay” value ([1]; 0.5% SDS, conjugate 1:150, Peptone, black and white plate, tube luminometer) of the same molecule?
Answer: Its value is 998 ± 103.

Question: What about the “signal, direct binding Salmonella assay” value ([1]; 0.5% SDS, conjugate 1:150, S. aberdeen 2.5 × 10^4, black and white plate, tube luminometer) of the same molecule?
Answer: The value was 1615 ± 132.

Question: What about the “signal, direct binding Salmonella assay” value ([1]; 0.5% SDS, conjugate 1:150, S. aberdeen 5 × 10^3, black and white plate, tube luminometer) of the same molecule?
Answer: Its value is 975 ± 42.

Question: And the “signal, direct binding Salmonella assay” value ([1]; 0.5% SDS, conjugate 1:150, S. aberdeen 5 × 10^4, black and white plate, tube luminometer)?
Answer: Its value is 6576 ± 549.

Question: What about the “signal, direct binding Salmonella assay” value ([1]; 0.5% SDS, conjugate 1:150, S. aberdeen 10^4, black and white plate, tube luminometer) of the same molecule?
Answer: The value was 1415 ± 132.

Question: What about the “signal, direct binding Salmonella assay” value ([1]; 0.5% SDS, conjugate 1:150, S. aberdeen 10^5, black and white plate, tube luminometer) of the same molecule?
Answer: Its value is 12,817 ± 975^.

Question: And the “signal, direct binding Salmonella assay” value ([1]; 0.5% SDS, conjugate 1:150, S. aberdeen 10^6, black and white plate, tube luminometer)?
Answer: The value was 31,571 ± 2.

Question: And the “signal, release and detection” value ([2]; 0.1% SDS)?
Answer: Its value is 7863 relative light units.

Question: And the “signal, release and detection” value ([2]; 0.5% SDS)?
Answer: Its value is 8051 relative light units.
